Test results reported in patent US6245758A, “Methods of use for peroxynitrite decomposition catalysts, pharmaceutical compositions therefor” (priority 1996, dated 2001).
Where a name gives a salt, the structure may show the parent alone.

Experiments:
[1] = Stopped-flow kinetic analysis of catalytic decomposition of peroxynitrite by metal complexes; conditions: pH = 7.4, 22° C.
Procedure: To screen metal complexes for peroxynitrite decomposition catalytic activity of the present invention, peroxynitrite is prepared and isolated as its sodium salt by the reaction of acidic hydrogen peroxide with sodium nitrite followed by rapid quenching with NaOH as set out by Halfpenny and Robinson, in J. Chem. So., 1952, 928-938. Peroxynitrite has an absorbance maximum at 302 nm with an extinction coefficient of 1670 M^-1 cm^-1. Therefore, it is possible to directly observe the decomposition of peroxynitrite by stop-flow spectrophotometric analysis by monitoring the decomposition of the absorbance at 302 nm. That is, such observation of the decomposition of peroxynitrite at a rate accelerated over the natural decomposition rate with the addition of the metal complex identifies a compound of the present invention.
Kinetic measurements were made on an OLIS Rapid Scanning Stopped-Flow Spectrometer (On-Line Instrument Systems Inc., Bogart, Ga.)) using the OLISRSM-1000 Operating system for data acquisition and manipulation.
Thus, in a typical experiment the natural background decomposition rate of sodium peroxynitrite was determined as follows. A 24 mM stock solution of sodium peroxynitrite in 50 mM NaOH is load into the small volume syringe and 100 mM potassium phosphate pH=7.4 is charged into the large volume syringe of the stopped-flow spectrophotometer. All stopped -flow measurements were made at 22 ° C. Injection of the solutions into the sample compartment results in ~25 fold dilution of the stock sodium peroxynitrite. […] To test for catalytic peroxynitrite decomposition activity, the metal complex was dissolved in 100 mM potassium phosphate buffer pH=7.4 and loaded into the large syringe and the decomposition of peroxynitrite was monitored as described above. The catalytic rate constant (kcat M-1 sec^-1) for the complexes tested was determined by varying the complex concentration and plotting kobs vs [complex] Table 1. The kobs were obtained from averages of three stopped flow analysis at each catalyst concentration.

[2] = test system: carrageenan-induced paw edema; assay: Carrageenan-induced paw edema; type: in vivo, rat
From the text: Carrageenan-induced paw edema. The effects of peroxynitrite catalysts in vivo were initially tested on the carrageenan-induced paw edema. The choice of using this in vivo model of inflammation was based on the knowledge that 1) the inflammatory response is blocked by NOS inhibitors and 2) by superoxide dismutase (SOD). This indicates the participation of both NO and of O2-. Male Sprague Dawley rats were purchased from Harlan Sprague-Dawley (Indianapolis, Ind.). Male Sprague Dawley rats (175-200 g) received a subplantar injection in the right hind paw of carrageenan (0.1 ml of a 1% suspension in 0.85% saline). Paw volume was measured by a plethysmometer immediately before the injection of carrageenan and then at hourly intervals from 1 to 6 h. Edema was expressed as the increase in paw volume (in ml) measured after carrageenan injection compared to the pre-injection value for individual animals.

RAW 264.7 cells = assay: Cell protection assay, Alamar Blue viability after peroxynitrite challenge; type: cell-based, murine; conditions: PN 500 micromolar; RAW cells, FIG. 9 (H2 TMPyP and ZnTMPyP: data not shown)
Procedure: FIG. 8: Comparison of Ni and Fe Catalyst Protection of RAW Cells from PN(peroxynitrite)-mediated Injury. RAW 264.7 cells were plated at approximately 2×10^5 per well of a 96-well plate. […] Each condition represents the mean of 4 wells ±sem.
FIG. 9: Protection from PN-mediated RAW Cell Injury by Fe Catalysts. Cells were treated with 500 micromolar PN in the presence or the absence of the following catalysts: FeTMPyP, FeTMPS, FeTPPS. Cell viability was monitored as described in the text and figure legends 1, 2 and 3. Values represent the mean of 4 determinations ±sem.
Protocol for Cell Protection Assays using Peroxynitrite Decomposition Catalysts: A cell viability assay was established to rapidly assess the efficacy of peroxynitrite(PN) catalysts in protecting cells from PN25 mediated injury and death. The peroxynitrite challenge consisted of a pulse of synthetic PN added exogenously to cells. In order to better assess the efficacy of PN catalysts in protecting cells from PN-mediated damage, a quantity of peroxynitrite(in 50 mM NaOH) determined to cause maximal injury(100%) was added as an exogenous pulse to each well of cells in the presence or absence of catalyst. The NaOH vehicle was not toxic by itself.
Cells(RAW 264.7 cells or P815 mastocytoma cells; American Type Culture Collection, Rockville, Md.) were plated to confluence on 96-well tissue culture plates. Each well is washed twice with Dulbecco's phosphate buffered saline(DPBS; GIBCO BRL, Grand Island, N.Y.) to remove protein and other serum components which might react with the exogenous peroxynitrite. To each well is then added 200 μl of DPBS. PN is next placed into separate wells at increasing concentrations and cell viability monitored. The dose at which maximal cell death is attained is then utilized for the catalyst protection assessment.
Phosphate-buffered saline (200 uL) containing increasing concentrations of catalyst is next placed into individual wells of cells. The maximal dose of PN is subsequently administered to all wells of cells. After 15 minutes, the medium is removed from each well and the cells are either allowed to recover overnight in Earles minimum essential medium without phenol red and supplemented with 10% fetal bovine serum or alternatively the plate of cells is assayed that day for mitochondrial integrity using the Alamar Blue viability assay(Alamar Biosciences, Inc.; Sacramento, Calif.). In either case, cells are incubated at 37° C. in 5% CO2.
Cell injury is measured as follows. Briefly, 10% Alamar Blue(v/v) in Earles MEM with 10% FBS is added to each well of cells for 1-2h. Cell metabolism of the dye generates a fluorescent product which is directly related to the number of viable cells. Moreover, the production of the fluorescent metabolite is linear for over 2 h. The amount of fluorescent product in 100 μl of conditioned medium from each well of cells is then measured with an IDEXX fluorescent plate reader (gain setting of 1%) at an emission wavelength of 575 nm after exciting at 545 nm. Viability is either given as absolute fluorescent units or as a percent of the value obtained for untreated cells(100%).

[3] = 30 mg/kg i.v., 1 h post carrageenan
[4] = 30 mg/kg i.v., 2 h post carrageenan
[5] = 30 mg/kg i.v., 3 h post carrageenan
[6] = 30 mg/kg i.v., 4 h post carrageenan
[7] = 30 mg/kg i.v., 5 h post carrageenan
[8] = 30 mg/kg i.v., 6 h post carrageenan

Row | Molecule | kcat, catalytic rate constant for the decomposition of sodium peroxynitrite [1] | % Inhibition of Paw Edema [2, 3] [%] | % Inhibition of Paw Edema [2, 4] [%] | % Inhibition of Paw Edema [2, 5] [%] | % Inhibition of Paw Edema [2, 6] [%] | % Inhibition of Paw Edema [2, 7] [%] | % Inhibition of Paw Edema [2, 8] [%] | also measured
1 | Cc1c(-c2c3nc(c(-c4c(C)c(S(=O)(=O)O)c(C)c(S(=O)(=O)O)c4C)c4ccc([nH]4)c(-c4c(C)c(S(=O)(=O)O)c(C)c(S(=O)(=O)O)c4C)c4nc(c(-c5c(C)c(S(=O)(=O)O)c(C)c(S(=O)(=O)O)c5C)c5ccc2[nH]5)C=C4)C=C3)c(C)c(S(=O)(=O)O)c(C)c1S(=O)(=O)O [Example H2TMPS, 5,10,15,20-tetrakis(3,5-disulfonatedmesityl)porphyrin octasodium salt] | Inactive | 0 | 0 | 0 | 0 | 0 | 0 | inhibition of edema formation ([2]; 30 mg/kg i.v.): failed to inhibit edema formation
2 | COc1cccc(C=NCCN=Cc2cccc(OC)c2[O-])c1[O-].[Cl-].[Fe+3] [Fe(III)(3,3'MeO2 Salen)] | 50000 M⁻¹ s⁻¹ | – | – | – | – | – | – | –
3 | O=C([O-])CC(O)(CC(=O)[O-])C(=O)[O-].[Fe+3] [Fe(III)Citrate, Iron(III)citrate, reference compound] | 15000 M⁻¹ s⁻¹ | – | – | – | – | – | – | –
4 | O=C([O-])CN(CCN(CC(=O)[O-])CC(=O)[O-])CC(=O)[O-].[Fe+3] [Fe(III)EDTA, iron(III)EDTA, reference compound] | 20000 M⁻¹ s⁻¹ | – | – | – | – | – | – | –
5 | CC(=O)[O-].O=S(=O)(O)c1ccc(-c2c3nc(c(-c4ccc(S(=O)(=O)O)cc4)c4ccc([n-]4)c(-c4ccc(S(=O)(=O)O)cc4)c4nc(c(-c5ccc(S(=O)(=O)O)cc5)c5ccc2[n-]5)C=C4)C=C3)cc1.[Fe+3] [Fe(III)TPPS, Acetato-5,10,15,20-tetrakis(4-sulfonatophenyl)porphyrin iron(III)] | 2.06e+06 M⁻¹ s⁻¹ | 0 | 27 | 25 | 30 | 34 | 33 | protection of cells from PN-mediated injury (RAW 264.7 cells): significant protection of cells; % Inhibition of Paw Edema ([2]; 3 mg/kg i.v., 1 h post carrageenan): 0%; % Inhibition of Paw Edema ([2]; 3 mg/kg i.v., 2 h post carrageenan): 29%; % Inhibition of Paw Edema ([2]; 3 mg/kg i.v., 3 h post carrageenan): 20%; % Inhibition of Paw Edema ([2]; 3 mg/kg i.v., 4 h post carrageenan): 20%; % Inhibition of Paw Edema ([2]; 3 mg/kg i.v., 5 h post carrageenan): 19%; % Inhibition of Paw Edema ([2]; 3 mg/kg i.v., 6 h post carrageenan): 5%; % Inhibition of Paw Edema ([2]; 10 mg/kg i.v., 1 h post carrageenan): 0%; % Inhibition of Paw Edema ([2]; 10 mg/kg i.v., 2 h post carrageenan): 17%; % Inhibition of Paw Edema ([2]; 10 mg/kg i.v., 3 h post carrageenan): 20%; % Inhibition of Paw Edema ([2]; 10 mg/kg i.v., 4 h post carrageenan): 23%; % Inhibition of Paw Edema ([2]; 10 mg/kg i.v., 5 h post carrageenan): 19%; % Inhibition of Paw Edema ([2]; 10 mg/kg i.v., 6 h post carrageenan): 20%
6 | [Cl][Fe]([Cl])[Cl] [FeCl3, reference compound] | – | – | – | – | – | – | – | inhibition of edema formation ([2]; 5 mg/kg, n=6): failed to inhibit edema formation
7 | CC(=O)[O-].Cc1c(-c2c3nc(c(-c4c(C)c(S(=O)(=O)[O-])c(C)c(S(=O)(=O)[O-])c4C)c4ccc([n-]4)c(-c4c(C)c(S(=O)(=O)[O-])c(C)c(S(=O)(=O)[O-])c4C)c4nc(c(-c5c(C)c(S(=O)(=O)[O-])c(C)c(S(=O)(=O)[O-])c5C)c5ccc2[n-]5)C=C4)C=C3)c(C)c(S(=O)(=O)[O-])c(C)c1S(=O)(=O)[O-].[Mn+3].[Na+].[Na+].[Na+].[Na+].[Na+].[Na+].[Na+].[Na+] [Mn(III)TMPS, Acetato 5,10,15,20tetrakis(3,5,disulfonatomesityl)porphyrin Manganese(III) octasodium salt] | 29000 M⁻¹ s⁻¹ | 0 | 0 | 0 | 0 | 0 | 0 | –
8 | CC1=NCCCNCCCN=C(C)c2cccc1n2.[Cl-].[Cl-].[Ni+2] [Ni(CR)Cl2, reference compound] | Inactive | – | – | – | – | – | – | –
9 | Cc1c(-c2c3nc(c(-c4c(C)c(S(=O)(=O)[O-])c(C)c(S(=O)(=O)[O-])c4C)c4ccc([n-]4)c(-c4c(C)c(S(=O)(=O)[O-])c(C)c(S(=O)(=O)[O-])c4C)c4nc(c(-c5c(C)c(S(=O)(=O)[O-])c(C)c(S(=O)(=O)[O-])c5C)c5ccc2[n-]5)C=C4)C=C3)c(C)c(S(=O)(=O)[O-])c(C)c1S(=O)(=O)[O-].[Na+].[Na+].[Na+].[Na+].[Na+].[Na+].[Na+].[Na+].[Ni+2] [Ni(II)TMPS, Acetato-5,10,15,20-tetrakis(3,5-disulfonatomesityl)porphyrin Nickel (II) octasodium salt] | 87200 M⁻¹ s⁻¹ | – | – | – | – | – | – | –
10 | CC1=CC(C)=Nc2ccccc2[N-]C(C)=CC(C)=Nc2ccccc2[N-]1.[Ni+2] [Ni(II)[14]12eneN4] | 17000 M⁻¹ s⁻¹ | – | – | – | – | – | – | –
11 | Cc1c(-c2c3nc(c(-c4c(C)c(S(=O)(=O)[O-])c(C)c(S(=O)(=O)[O-])c4C)c4ccc([n-]4)c(-c4c(C)c(S(=O)(=O)[O-])c(C)c(S(=O)(=O)[O-])c4C)c4nc(c(-c5c(C)c(S(=O)(=O)[O-])c(C)c(S(=O)(=O)[O-])c5C)c5ccc2[n-]5)C=C4)C=C3)c(C)c(S(=O)(=O)[O-])c(C)c1S(=O)(=O)[O-].[Na+].[Na+].[Na+].[Na+].[Na+].[Na+].[Na+].[Na+].[Zn+2] [ZnTMPS, reference compound] | – | 0 | 0 | 0 | 0 | 0 | 0 | –
12 | MnTPPS [reference compound] | – | – | – | – | – | – | – | inhibition of edema formation ([2]; 30 mg/kg i.v.): failed to inhibit edema formation
